Read-outs that look alike come from different tables or passages of the source.
Columns and labels:
[1] = molecular target: T1, AURKA-TPX2 interaction (His-tagged AURKA123–403 / TAMRA-labelled TPX2 1–43) (Homo sapiens, UniProt O14965); test: Fluorescence anisotropy (FA) competition assay: displacement of TAMRA-TPX2 1-43 from AURKA123-403
T1 sequence (O14965 123-403): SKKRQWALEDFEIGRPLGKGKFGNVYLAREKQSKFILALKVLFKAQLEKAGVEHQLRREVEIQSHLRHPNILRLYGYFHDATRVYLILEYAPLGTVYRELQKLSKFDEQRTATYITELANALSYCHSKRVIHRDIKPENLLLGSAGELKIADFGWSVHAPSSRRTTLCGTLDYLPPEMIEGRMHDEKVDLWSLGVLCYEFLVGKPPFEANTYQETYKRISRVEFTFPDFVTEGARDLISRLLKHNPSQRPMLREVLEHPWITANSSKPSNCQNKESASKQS
Source text: The HTS actives were resupplied and retested to check for dose-dependent inhibition of the PPI in FA assay.

[2] = molecular target: T2, AURKA (Aurora-AG-126-390) (Homo sapiens, UniProt O14965); test: Isothermal titration calorimetry; format: binding; details: for Kd: 25 °C; for Ligand efficiency (Leff): calculated using Ki or Kd values
T2 construct: was titrated into Aurora-AG-126-390 protein solution (30 μM); extra N-terminal Gly from cloning (the 'G' of the construct name); 6xHis (read by me from reverse primer 4); made in house; host or cells: E. coli BL21 (DE3) with pUBS550, co-expressed with lambda phosphatase (pBAT4-λPP)
T2 sequence (O14965 126-390): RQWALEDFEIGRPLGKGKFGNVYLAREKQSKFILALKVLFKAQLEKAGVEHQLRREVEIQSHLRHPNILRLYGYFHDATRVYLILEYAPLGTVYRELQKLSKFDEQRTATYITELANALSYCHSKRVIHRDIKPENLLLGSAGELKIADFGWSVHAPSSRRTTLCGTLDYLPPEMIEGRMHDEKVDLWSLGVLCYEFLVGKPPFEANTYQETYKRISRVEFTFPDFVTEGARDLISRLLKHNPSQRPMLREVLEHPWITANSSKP
Protocol: Calorimetric titrations were performed on an iTC200 (MicroCal, Inc.) device. Protein was buffer exchanged into ITC buffer (Buffer C with 2% DMSO). Titration experiments were performed at 25 °C with an initial injection (0.4 μL) at a duration of 0.8 s, followed by 19 injections (2 μL) at a duration of 4 s. […] Binding isotherms were fit by non-linear regression using the single-site model provided by Origin software (MicroCal, Inc.). The stoichiometry of the interaction (N), equilibrium association constant (Ka) and change of enthalpy (ΔH) were floated during the fitting.

pT287/pT288 AURKA126–390 = molecular target: T3, pT287/pT288 AURKA126–390 (Homo sapiens, UniProt O14965); test: HTRF in vitro kinase assay (KinEASE, Cisbio); format: biochemical; details: excess inhibitor (25x Ki), absence of TPX2
T3 construct: a T287/T288 doubly-phosphorylated recombinant AURKA126–390 in the absence of TPX2; 6xHis (inferred from reverse primer 4 of AurAG-126-390); made in house; host or cells: E. coli BL21 (DE3) with pUBS550
T3 sequence (O14965 126-390): T2 sequence (O14965 126-390)
Protocol: To test this hypothesis, we used a commercially available in vitro kinase assay (KinEASE, Cisbio) to measure AURKA-dependent phosphorylation of a generic peptide substrate by homogeneous time-resolved fluorescence (HTRF) assay (Supplementary Fig. 9). Enzymatic phosphorylation occurred in the presence of the substrate peptide and ATP, and the phosphorylated substrate was subsequently detected in a proprietary antibody detection step. These studies were performed using a T287/T288 doubly-phosphorylated recombinant AURKA126–390 in the absence of TPX2.
The volume of enzymatic reaction was 10 μL, [AURKA] = 5 ng/well, excess propriatory peptide substrate (1 μM) and ATP (100 μM). The reaction was incubated for 10 min. MLN8237 is an ATP-competitive inhibitor used as a positive control. […] Error bars represent standard deviation (n = 3).

[3] = molecular target: T4, AURKAGSMGS-126-390 (non-phosphorylated, uncleaved His-tag) (Homo sapiens, UniProt O14965); test: In vitro auto-phosphorylation assay (anti-pT288 Western blot); format: biochemical; details: AurkinA 100 μM, ATP 100 μM, protein 30 μM, up to 40 min
T4 construct: Aurora-A kinase construct AurAGSMGS-126-391 was purified as described above; made in house; host or cells: E. coli BL21 (DE3) with pUBS550, co-expressed with lambda phosphatase
T4 sequence (O14965 126-391): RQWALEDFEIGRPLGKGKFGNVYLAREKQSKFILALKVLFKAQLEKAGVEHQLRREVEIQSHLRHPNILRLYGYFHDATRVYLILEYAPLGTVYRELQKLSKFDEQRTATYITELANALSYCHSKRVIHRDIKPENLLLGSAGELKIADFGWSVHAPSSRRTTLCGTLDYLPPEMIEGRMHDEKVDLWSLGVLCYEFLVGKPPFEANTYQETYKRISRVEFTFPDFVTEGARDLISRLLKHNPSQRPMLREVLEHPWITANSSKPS
Protocol: It has been extensively reported that auto-phosphorylation of […] in the activation loop stimulates AURKA kinase activity. […] For autophosphorylation experiments Aurora-A kinase construct […]-126-391 was purified as described above but using buffers containing no ATP and His-tag was left on the N-terminus. […] Control sample contained JNJ-7706621 (100 μM) that was added to the reaction prior ATP. 15 ng of each sample were run in 11% SDS-PAGE gels. Western blots were prepared by electro-blotting SDS-PAGE gels onto PVDF membranes (Millipore) and probing with anti-penta-his-tag antibody (1:2000 dilution, Qiagen, 34660) or anti-Aurora-A phosphoT288 antibodies (1:1000 dilution, Abcam, ab195748), followed by HRP conjugated […]-mouse antibodies (GE Healthcare) or HRP conjugated goat anti-rabbit antibodies (Abcam), respectively.

[4] = test system: AURKA on the spindle in mitotic HeLa cells; test: High-content microscopy assay of AURKA mislocalisation from spindle microtubules; format: cell-based; details: Homo sapiens, 2 h treatment, % cells with below threshold AURKA intensity under TPX2 mask
Protocol: For quantitative determination of Aurora-A mislocalisation from spindle microtubules, cells were plated at a density of 0.75 × 10^5 cells per well of a clear flat bottom 96-well plate. On each plate a set of wells were treated with doxycycline as a positive control. After 24 h the compounds were diluted in […] Bortezomib (Selleck Chemicals) and treated for 2 h. Hereafter all steps were carried out at room temperature. The cells were fixed by addition of freshly prepared PHEM-buffered formaldehyde (100 μL per well) for 10 minutes (100 mM PIPES, 20 mM HEPES, 5 mM EGTA, 2 mM MgCl2, 0.2% TritonX-100, 6.4% formaldehyde). These were permeablised with 100 μl of PBS-T-T (1X PBS/0.1% Triton- 100/0.1% Tween-20) for 10 min, blocked in 3% BSA-PBS-T-T for 30 min. Hereafter all the steps including dilution of antibodies was done in the blocking solution. A cocktail of primary antibodies (50 μL, mouse anti-TPX2, Abcam 32795, 18D5-1, 1:500; rabbit anti-Aurora A, Millipore EP1008Y, 1:1000) for 1.5 h and washed thrice with the blocking solution. […]
The plates were scanned using Molecular Translocation protocol with 40X objective with 3 flurophore recognising channels. […] The software generated an overlay of TPX2-stained spindles (channel 2), and the average intensity of the Aurora-A (channel 3) within that mask was scored. […]

[5] = test system: phosphorylated T288 (pT288) AURKA in mitotic HeLa cells; test: High-content AURKA T288-dephosphorylation assay; format: cell-based; details: Homo sapiens, read-out: EC50, % cells with below threshold pT288
Protocol: A modified version of the Aurora A mislocalisation assay using the same cells, doxycycline-treated controls, drugging plan, Bortezomib treatment, fixing protocol, Hoechst staining and secondary antibodies as above. The primary antibodies used were anti-phospho Aurora A Thr288 (Cell Signaling, #3079, 1:500) and anti-Histone H3 phospho S10 (Abcam, 14955, 1:2000). High-content imaging settings were the same as for the mislocalisation assay, but analysis was performed using the CellHealthProfiling v4 Bioapplication. Cells were identified in the Hoechst channel as above, and the resulting nuclear mask used for all subsequent measurements. Mitotic cells were selected from the images on the basis of phospho-histone H3 positivity, using a threshold 10 times above the image background. These selected cells were then measured for phospho-Aurora A staining intensity within a target area defined by expanding the nuclear mask by 8 pixels then collapsing it using a threshold for the phospho-Aurora channel, set to 3 times the background staining in this channel. Assay thresholds were calculated from the negative control wells of each plate as for the mislocalisation assay and ‘% dephosphorylated Aurora A T288’ scores were calculated for each well. EC50 values were calculated from four-parameter dose-response curves that were fitted using Prism GraphPad software (La Jolla, CA).

[6] = molecular target: T5, AURKA / mCherry-TPX2 1–43 (Homo sapiens, UniProt O14965); test: Co-immunoprecipitation of AURKA and mCherry-TPX2 1-43 from HeLa cell lysates; details: cell lysates (500 µg) incubated 2 h, 25-400 µM, +DOX
T5 construct: endogenous in cells; host or cells: HeLa FlpIn TREx lysate; AURKA endogenous, mCherry-TPX2 1-43 stably transfected and doxycycline-induced
T5 sequence (O14965 1-403): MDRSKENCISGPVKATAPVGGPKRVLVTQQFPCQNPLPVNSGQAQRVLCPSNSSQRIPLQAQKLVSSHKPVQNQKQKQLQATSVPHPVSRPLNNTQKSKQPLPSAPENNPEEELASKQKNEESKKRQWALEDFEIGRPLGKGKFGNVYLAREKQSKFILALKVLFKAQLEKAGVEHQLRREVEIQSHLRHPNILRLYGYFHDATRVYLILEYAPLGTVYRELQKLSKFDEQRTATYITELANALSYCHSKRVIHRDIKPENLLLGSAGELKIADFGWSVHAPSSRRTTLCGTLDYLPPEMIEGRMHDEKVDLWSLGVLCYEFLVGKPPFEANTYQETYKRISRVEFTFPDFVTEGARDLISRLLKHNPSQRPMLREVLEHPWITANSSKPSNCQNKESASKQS
Protocol: Stable HeLa FlpIn TREx cell line expressing a fusion mCherry-TPX2_1–43 protein upon addition of doxycycline ([…]) was generated (Supplementary Methods). This cell line was used for further experiments. For immunoblotting, proteins were extracted in lysis buffer (50 mM HEPES, pH 7.4; 100 mM NaCl, 0.5% NP-40, 10 mM EDTA, 20 mM β-glycerophosphate, 1 mM DTT, 1 mM sodium orthovanadate, 1 mM PMSF, protease inhibitors and phosphatase inhibitor (Roche)). 0.5 mg of lysate was used for co-immunoprecipitation. mCherry pull down was performed using RFP-trap (Chromotrap) following manufacturers’ instructions. Extracts were resolved by SDS-PAGE, transferred to PVDF membrane, blocked in TBS-Tween (50 mM Tris pH 7.6, 150 mM NaCl, 0.1% Tween-20) plus 5% non-fat dried milk, and probed with primary antibodies at 4 °C overnight. Membrane was incubated with secondary mouse HRP (GE Healthcare, NXA931) and rabbit HRP antibodies (Jackson Laboratories, 111-036-047) for 1 h at room temperature and the signal was developed using ECL or ECL prime reagent (GE Healthcare).
co -‐immunoprecipitation
(1 picture or pasted object on this page, not shown here)

[7] = Average IC50, Supplementary Table 1, FA assay
[8] = Calculated Ki, Supplementary Table 1, free-concentration corrected Cheng-Prusov
[9] = IC50, inhibition of AURKA:TPX2 interaction in FA assay, Fig. 1b
[10] = Ki from FA competition assay, free-concentration corrected Cheng-Prusov equations

Row | IC50 [1, 7] [µM] | Ki [1, 8] [µM] | Ligand efficiency (Leff) [2] | N (stoichiometry, ITC fit) ([2]; single-site model fit) [Sites] | ∆H (ITC fit) ([2]; single-site model fit) [kcal/mol] | ∆S (ITC fit) ([2]; single-site model fit) [cal/mol/deg] | IC50 [1, 9] [µM] | Ki [1, 10] [µM] | SMILES | other results
1 |  |  | 0.25 | 0.975 ±0.0300 | -5.917 ± 0.2397 | 2.92 | 41 | 8.9 | O=C(O)c1ccccc1NC(=O)c1cc(-c2ccccc2)nc2ccccc12 [compound 1] | Kd ([2]; read-out: Kd (ITC)): 10.6 µM; Kd ([2]; read-out: pKd (ITC) (converted)): 10.5 µM; K (association constant, ITC fit) ([2]; single-site model fit): 94700 ± 7610 M⁻¹; Effect of JNJ-7706621 on the compound's inhibition of the AURKA-TPX2 1-43 interaction ([1]; [JNJ] = 0.4 μM vs DMSO): unaffected
2 | 289 | 62.5 | 0.31 |  |  |  | 63 | 68 | O=C(O)c1cc(-c2ccccc2)nc2ccccc12 [compound 3, 2-phenyl-4-carboxyquinoline, reference compound] | 

Second part, the compound before the results:

Row | SMILES | IC50 [1, 7] [µM] | Ki [1, 8] [µM] | Ligand efficiency (Leff) [2] | N (stoichiometry, ITC fit) ([2]; single-site model fit) [Sites] | ∆H (ITC fit) ([2]; single-site model fit) [kcal/mol] | ∆S (ITC fit) ([2]; single-site model fit) [cal/mol/deg] | IC50 [1, 9] [µM] | Ki [1, 10] [µM] | other results
3 | O=C(O)c1cc(-c2cccc(Br)c2)nc2ccccc12 [AA30] | 25.6 | 5.5 |  |  |  |  |  |  | 
4 | O=C(O)c1cc(-c2cccc(Br)c2)nc2ccc(Cl)cc12 [AA29] | 34.4 | 7.4 |  |  |  |  |  |  | 
5 | O=C(O)c1cc(-c2cccc(Br)c2)nc2c(F)cccc12 [AurkinA, 2-(3-bromophenyl)-8-fluoroquinoline-4-carboxylic acid] |  |  |  | 0.924 | -23.09 | -52.6 |  |  | -T∆S of binding ([2]; ITC): 15.7 kcal/mol; ∆H of binding ([2]; ITC): -23.1 kcal/mol; Maximal inhibition of kinase activity (plateau) (pT287/pT288 AURKA126–390): ~ 75%; Effect on auto-phosphorylation of AURKA (pT288) [3]: significantly delayed; EC50 [4]: 85 µM; EC50 [5]: 135 µM; Effect on co-immunoprecipitation of AURKA with RFP (mCherry-TPX2 1-43) [6]: inhibited

Reference: publication PMC4919790, “Allosteric modulation of AURKA kinase activity by a small-molecule inhibitor of its protein-protein interaction with TPX2” (Scientific Reports, 2016)
